{"source": "ChEMBL document CHEMBL5463728", "about": "“Data for DCP probe BAY-6096” (2023)", "key": {"[1]": {"biological_target": "T1, 5-hydroxytryptamine receptor 2C (Homo sapiens) (UniProt P28335)", "T1 sequence (whole entry)": "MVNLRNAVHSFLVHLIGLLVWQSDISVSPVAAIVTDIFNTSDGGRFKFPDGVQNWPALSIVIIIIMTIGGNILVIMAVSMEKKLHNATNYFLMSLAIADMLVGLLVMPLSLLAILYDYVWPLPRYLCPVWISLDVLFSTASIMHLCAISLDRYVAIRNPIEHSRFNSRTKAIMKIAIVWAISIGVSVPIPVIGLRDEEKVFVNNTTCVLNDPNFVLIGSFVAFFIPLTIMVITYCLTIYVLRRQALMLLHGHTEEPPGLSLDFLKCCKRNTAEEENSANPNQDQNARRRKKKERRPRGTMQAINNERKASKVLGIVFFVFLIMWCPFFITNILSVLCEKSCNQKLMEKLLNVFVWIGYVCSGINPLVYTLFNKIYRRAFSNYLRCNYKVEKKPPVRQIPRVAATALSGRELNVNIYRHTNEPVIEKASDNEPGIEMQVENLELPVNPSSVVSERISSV", "conditions": "Compound concentration 10.0 uM; call rule not given here"}, "[2]": {"biological_target": "Endothelin-1 receptor (Homo sapiens) (UniProt P25101)", "sequence (P25101 whole entry)": "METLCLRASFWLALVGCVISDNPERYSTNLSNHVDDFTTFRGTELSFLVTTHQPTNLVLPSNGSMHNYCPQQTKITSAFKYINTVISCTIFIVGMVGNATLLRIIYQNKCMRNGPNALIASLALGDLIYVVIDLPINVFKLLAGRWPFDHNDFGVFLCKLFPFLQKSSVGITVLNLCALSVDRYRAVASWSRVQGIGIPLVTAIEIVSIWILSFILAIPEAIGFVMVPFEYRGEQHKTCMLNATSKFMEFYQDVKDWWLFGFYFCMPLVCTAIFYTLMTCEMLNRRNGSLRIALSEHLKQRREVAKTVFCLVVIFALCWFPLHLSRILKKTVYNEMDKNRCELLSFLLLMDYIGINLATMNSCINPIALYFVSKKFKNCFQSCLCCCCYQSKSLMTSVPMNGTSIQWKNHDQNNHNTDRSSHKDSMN", "conditions": "Compound concentration 10.0 uM"}, "[3]": {"biological_target": "Adenosine receptor A3 (Homo sapiens) (UniProt P0DMS8)", "conditions": "Compound concentration 10.0 uM"}, "[4]": {"biological_target": "cGMP-specific 3',5'-cyclic phosphodiesterase (Homo sapiens) (UniProt O76074)", "conditions": "Compound concentration 10.0 uM"}, "[5]": {"biological_target": "Progesterone receptor (Homo sapiens) (UniProt P06401)", "conditions": "Compound concentration 10.0 uM"}, "[6]": {"biological_target": "Acetylcholinesterase (Homo sapiens) (UniProt P22303)", "sequence (P22303 whole entry)": "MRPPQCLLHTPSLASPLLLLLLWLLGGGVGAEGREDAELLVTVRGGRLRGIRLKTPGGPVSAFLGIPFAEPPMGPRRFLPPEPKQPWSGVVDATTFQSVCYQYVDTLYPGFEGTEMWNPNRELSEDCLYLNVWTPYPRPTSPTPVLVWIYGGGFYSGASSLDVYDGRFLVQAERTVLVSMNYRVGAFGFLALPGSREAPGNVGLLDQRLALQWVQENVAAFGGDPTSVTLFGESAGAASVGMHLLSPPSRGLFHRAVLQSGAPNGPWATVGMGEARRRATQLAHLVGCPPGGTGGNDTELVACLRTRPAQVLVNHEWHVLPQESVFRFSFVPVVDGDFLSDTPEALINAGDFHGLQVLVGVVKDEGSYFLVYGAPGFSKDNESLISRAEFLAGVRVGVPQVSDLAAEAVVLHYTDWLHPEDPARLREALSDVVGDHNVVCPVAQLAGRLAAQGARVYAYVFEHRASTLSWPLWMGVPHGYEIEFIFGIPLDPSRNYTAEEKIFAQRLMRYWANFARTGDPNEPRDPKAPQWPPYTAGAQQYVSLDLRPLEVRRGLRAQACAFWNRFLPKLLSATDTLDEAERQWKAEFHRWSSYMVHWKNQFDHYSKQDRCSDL", "conditions": "Compound concentration 10.0 uM"}, "[7]": {"biological_target": "5-hydroxytryptamine receptor 2B (Homo sapiens) (UniProt P41595)", "sequence (P41595 whole entry)": "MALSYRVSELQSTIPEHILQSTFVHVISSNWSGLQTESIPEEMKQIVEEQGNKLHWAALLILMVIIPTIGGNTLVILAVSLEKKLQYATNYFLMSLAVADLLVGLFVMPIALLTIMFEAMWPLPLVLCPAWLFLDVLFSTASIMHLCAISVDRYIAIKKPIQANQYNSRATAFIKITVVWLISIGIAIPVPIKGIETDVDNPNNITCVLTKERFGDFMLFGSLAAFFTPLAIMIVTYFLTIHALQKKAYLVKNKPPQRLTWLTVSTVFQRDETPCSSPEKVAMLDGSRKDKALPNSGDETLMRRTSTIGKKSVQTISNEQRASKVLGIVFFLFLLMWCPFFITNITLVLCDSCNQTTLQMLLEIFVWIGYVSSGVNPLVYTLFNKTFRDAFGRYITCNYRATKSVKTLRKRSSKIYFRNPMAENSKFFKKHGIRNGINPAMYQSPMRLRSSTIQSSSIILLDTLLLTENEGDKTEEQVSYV", "conditions": "Compound concentration 10.0 uM"}, "[8]": {"biological_target": "Adenosine Transporter (Cavia porcellus) (UniProt H0V4R7+H0UUG1+H0V3Z5)", "assay": "Inhibition of Transporter, Adenosine at compound concentration of 10.0 uM in the Eurofins-Panlabs radioligand binding assay (Eurofins_assay_202000)", "type": "protein assay", "set-up": "ligand concentration 0.5 nM, non-specific ligand with concentration 5 uM Nitrobenzylthioinosine, incubation time 30 min, incubation temperature 25 C", "conditions": "Compound concentration 10.0 uM"}, "[9]": {"biological_target": "Beta-3 adrenergic receptor (Homo sapiens, UniProt P13945)", "sequence (P13945 whole entry)": "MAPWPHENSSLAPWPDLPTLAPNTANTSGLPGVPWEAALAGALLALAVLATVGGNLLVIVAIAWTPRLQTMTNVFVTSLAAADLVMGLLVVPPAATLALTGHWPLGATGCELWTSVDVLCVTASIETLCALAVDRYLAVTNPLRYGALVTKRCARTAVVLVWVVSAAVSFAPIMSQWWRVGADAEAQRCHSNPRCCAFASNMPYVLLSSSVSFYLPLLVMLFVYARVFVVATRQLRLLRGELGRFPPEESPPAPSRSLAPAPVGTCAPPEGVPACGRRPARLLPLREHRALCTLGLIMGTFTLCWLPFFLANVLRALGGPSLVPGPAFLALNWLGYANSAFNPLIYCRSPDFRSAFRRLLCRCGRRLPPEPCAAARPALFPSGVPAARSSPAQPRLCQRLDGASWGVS", "assay": "Adrenoceptor reporter cell assay (ADRB3)", "type": "functional"}, "[10]": {"organism": "Rattus norvegicus", "conditions": "Compound concentration 10.0 uM"}, "[11]": {"biological_target": "Sodium-dependent noradrenaline transporter (Homo sapiens) (UniProt P23975)", "sequence (P23975 whole entry)": "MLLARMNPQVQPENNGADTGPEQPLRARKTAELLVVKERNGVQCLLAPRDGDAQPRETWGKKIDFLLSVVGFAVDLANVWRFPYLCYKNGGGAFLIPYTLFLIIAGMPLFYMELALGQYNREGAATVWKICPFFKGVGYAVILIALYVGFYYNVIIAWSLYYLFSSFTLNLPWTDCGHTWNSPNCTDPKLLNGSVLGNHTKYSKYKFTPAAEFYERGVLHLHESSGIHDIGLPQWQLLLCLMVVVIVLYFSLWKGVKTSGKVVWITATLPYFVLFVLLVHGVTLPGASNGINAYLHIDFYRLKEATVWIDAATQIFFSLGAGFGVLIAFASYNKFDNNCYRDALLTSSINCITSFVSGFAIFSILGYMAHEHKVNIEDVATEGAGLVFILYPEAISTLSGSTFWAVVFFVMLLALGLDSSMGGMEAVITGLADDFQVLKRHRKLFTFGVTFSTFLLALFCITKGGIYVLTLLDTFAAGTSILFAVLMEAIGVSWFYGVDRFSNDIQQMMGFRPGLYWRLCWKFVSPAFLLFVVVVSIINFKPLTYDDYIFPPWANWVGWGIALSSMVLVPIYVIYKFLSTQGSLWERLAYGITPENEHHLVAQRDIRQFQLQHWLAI", "conditions": "Compound concentration 10.0 uM"}, "[12]": {"organism": "Sus scrofa", "assay": "Inhibition of ATPase, Na+/K+, Heart at compound concentration of 10.0 uM in the Eurofins-Panlabs enzyme assay (Eurofins_assay_107710)", "set-up": "substrate with concentration", "conditions": "Compound concentration 10.0 uM"}, "[13]": {"biological_target": "Growth hormone secretagogue receptor type 1 (Homo sapiens) (UniProt Q92847)", "conditions": "Compound concentration 10.0 uM"}, "[14]": {"biological_target": "B1 bradykinin receptor (Homo sapiens) (UniProt P46663)", "conditions": "Compound concentration 10.0 uM"}, "[15]": {"biological_target": "Prostaglandin G/H synthase 2 (Homo sapiens) (UniProt P35354)", "sequence (P35354 whole entry)": "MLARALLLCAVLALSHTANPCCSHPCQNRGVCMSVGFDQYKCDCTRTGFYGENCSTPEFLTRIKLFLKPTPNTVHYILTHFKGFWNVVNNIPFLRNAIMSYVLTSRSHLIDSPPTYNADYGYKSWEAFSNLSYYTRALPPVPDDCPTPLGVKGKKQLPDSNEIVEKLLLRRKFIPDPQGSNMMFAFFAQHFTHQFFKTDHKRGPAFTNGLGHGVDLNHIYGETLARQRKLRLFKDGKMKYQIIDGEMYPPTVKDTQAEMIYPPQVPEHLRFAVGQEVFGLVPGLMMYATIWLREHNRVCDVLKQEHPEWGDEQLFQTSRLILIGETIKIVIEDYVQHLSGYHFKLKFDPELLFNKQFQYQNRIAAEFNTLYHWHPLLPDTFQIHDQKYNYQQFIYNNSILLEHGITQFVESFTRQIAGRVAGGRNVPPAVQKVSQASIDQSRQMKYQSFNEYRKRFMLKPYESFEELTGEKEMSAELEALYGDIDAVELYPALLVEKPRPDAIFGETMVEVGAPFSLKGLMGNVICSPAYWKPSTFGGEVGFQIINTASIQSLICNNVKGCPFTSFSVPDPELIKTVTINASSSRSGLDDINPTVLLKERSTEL", "assay": "Inhibition of Cyclooxygenase COX-2 at compound concentration of 10.0 uM in the Eurofins-Panlabs enzyme assay (Eurofins_assay_118010)", "set-up": "substrate with concentration 0.3 uM Arachidonic acid, incubation time 15 min, incubation temperature 37 C", "conditions": "Compound concentration 10.0 uM"}, "[16]": {"biological_target": "Androgen receptor (Homo sapiens) (UniProt P10275)", "conditions": "Compound concentration 10.0 uM"}, "[17]": {"biological_target": "5-hydroxytryptamine receptor 2A (Homo sapiens) (UniProt P28223)", "sequence (P28223 whole entry)": "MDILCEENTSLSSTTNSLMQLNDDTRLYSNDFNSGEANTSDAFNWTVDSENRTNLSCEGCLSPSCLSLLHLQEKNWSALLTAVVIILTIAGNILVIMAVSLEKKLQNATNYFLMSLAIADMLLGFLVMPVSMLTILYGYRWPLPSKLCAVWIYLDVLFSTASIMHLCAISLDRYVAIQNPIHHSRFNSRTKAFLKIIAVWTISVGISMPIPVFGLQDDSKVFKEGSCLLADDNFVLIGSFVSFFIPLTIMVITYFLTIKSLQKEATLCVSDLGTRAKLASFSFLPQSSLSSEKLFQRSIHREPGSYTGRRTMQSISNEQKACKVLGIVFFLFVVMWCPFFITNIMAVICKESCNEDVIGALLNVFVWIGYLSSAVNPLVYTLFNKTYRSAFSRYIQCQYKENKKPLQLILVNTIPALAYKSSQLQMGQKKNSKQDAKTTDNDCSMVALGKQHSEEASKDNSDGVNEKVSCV", "conditions": "Compound concentration 10.0 uM"}, "[18]": {"organism": "Oryctolagus cuniculus", "conditions": "Compound concentration 10.0 uM"}, "[19]": {"biological_target": "T2, 5-hydroxytryptamine receptor 1A (Homo sapiens) (UniProt P08908)", "T2 sequence (whole entry)": "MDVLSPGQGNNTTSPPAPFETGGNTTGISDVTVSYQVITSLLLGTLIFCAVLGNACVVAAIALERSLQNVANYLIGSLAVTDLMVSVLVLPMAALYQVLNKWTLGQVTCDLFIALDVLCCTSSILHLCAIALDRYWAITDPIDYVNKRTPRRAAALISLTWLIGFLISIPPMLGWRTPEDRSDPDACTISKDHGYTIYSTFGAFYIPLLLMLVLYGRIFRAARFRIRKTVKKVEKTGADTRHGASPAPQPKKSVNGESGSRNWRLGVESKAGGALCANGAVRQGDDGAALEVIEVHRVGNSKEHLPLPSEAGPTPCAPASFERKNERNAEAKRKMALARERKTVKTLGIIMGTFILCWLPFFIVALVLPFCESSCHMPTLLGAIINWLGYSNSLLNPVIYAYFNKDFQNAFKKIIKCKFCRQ", "conditions": "Compound concentration 10.0 uM"}, "[20]": {"biological_target": "Prostaglandin G/H synthase 1 (Homo sapiens) (UniProt P23219)", "assay": "Inhibition of Cyclooxygenase COX-1 at compound concentration of 10.0 uM in the Eurofins-Panlabs enzyme assay (Eurofins_assay_116020)", "conditions": "Compound concentration 10.0 uM"}, "[21]": {"biological_target": "Sodium-dependent serotonin transporter (Homo sapiens) (UniProt P31645)", "conditions": "Compound concentration 10.0 uM"}, "[22]": {"biological_target": "Delta-type opioid receptor (Homo sapiens) (UniProt P41143)", "sequence (P41143 whole entry)": "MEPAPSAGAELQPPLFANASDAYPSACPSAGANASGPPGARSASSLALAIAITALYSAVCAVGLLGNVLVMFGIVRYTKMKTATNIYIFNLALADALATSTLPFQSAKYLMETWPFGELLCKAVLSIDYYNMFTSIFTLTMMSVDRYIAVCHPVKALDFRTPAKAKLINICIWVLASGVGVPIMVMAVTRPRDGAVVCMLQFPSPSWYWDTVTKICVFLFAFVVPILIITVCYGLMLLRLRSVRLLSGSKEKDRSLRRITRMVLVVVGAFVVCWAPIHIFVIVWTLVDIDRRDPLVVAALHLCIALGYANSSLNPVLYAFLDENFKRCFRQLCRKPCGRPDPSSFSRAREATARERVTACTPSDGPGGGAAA", "conditions": "Compound concentration 10.0 uM"}, "[23]": {"biological_target": "D(1B) dopamine receptor (Homo sapiens) (UniProt P21918)", "sequence (P21918 whole entry)": "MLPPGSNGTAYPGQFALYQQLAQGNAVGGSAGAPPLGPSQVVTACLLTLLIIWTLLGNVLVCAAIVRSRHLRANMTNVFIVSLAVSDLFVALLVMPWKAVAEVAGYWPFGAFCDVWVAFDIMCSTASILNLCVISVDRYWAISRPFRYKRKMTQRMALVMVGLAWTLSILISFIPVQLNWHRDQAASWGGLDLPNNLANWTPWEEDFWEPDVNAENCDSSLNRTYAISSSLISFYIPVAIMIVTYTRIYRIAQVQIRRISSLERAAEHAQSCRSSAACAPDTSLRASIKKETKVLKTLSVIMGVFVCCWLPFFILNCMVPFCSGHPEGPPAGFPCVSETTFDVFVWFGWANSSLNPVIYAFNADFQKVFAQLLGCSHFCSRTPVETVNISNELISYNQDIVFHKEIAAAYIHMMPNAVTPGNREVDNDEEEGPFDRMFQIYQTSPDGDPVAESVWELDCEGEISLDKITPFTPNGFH", "conditions": "Compound concentration 10.0 uM"}, "[24]": {"biological_target": "T3, Alpha-2B adrenergic receptor (Homo sapiens, UniProt P18089)", "T3 sequence (P18089 whole entry)": "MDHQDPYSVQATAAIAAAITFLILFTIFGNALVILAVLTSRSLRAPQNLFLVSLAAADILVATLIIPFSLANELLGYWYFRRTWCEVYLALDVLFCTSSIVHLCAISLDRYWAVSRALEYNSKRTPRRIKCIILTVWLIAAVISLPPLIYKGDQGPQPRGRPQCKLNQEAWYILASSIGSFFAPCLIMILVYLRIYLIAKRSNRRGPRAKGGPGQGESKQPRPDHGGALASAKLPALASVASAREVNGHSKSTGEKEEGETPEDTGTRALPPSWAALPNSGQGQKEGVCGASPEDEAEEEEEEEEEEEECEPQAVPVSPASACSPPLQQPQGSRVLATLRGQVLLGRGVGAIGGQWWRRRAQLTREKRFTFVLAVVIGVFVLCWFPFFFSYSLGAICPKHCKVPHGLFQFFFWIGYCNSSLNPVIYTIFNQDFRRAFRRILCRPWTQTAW", "assay": "GPCRScan assay: inhibition of Alpha2B", "set-up": "radioligand conc. used [nm] 1.5 – 2.0, parental cells HEKT"}, "[25]": {"biological_target": "Muscarinic acetylcholine receptor M1 (Homo sapiens) (UniProt P11229)", "sequence (P11229 whole entry)": "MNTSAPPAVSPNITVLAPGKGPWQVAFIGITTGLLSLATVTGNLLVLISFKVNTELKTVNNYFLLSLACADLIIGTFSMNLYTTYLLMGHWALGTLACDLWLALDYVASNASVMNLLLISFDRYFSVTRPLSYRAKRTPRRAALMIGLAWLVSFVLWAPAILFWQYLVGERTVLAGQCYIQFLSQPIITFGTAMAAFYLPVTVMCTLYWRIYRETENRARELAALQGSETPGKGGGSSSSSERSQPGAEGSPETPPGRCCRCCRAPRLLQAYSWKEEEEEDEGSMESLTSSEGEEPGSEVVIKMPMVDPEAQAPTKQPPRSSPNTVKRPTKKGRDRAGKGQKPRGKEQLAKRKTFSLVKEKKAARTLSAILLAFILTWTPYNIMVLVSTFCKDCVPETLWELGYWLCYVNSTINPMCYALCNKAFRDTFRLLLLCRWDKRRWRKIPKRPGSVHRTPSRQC", "conditions": "Compound concentration 10.0 uM"}, "[26]": {"biological_target": "T3, Alpha-2B adrenergic receptor", "assay": "Adrenoceptor Reporter Cell Assay (ADRA2B)", "type": "functional"}, "[27]": {"biological_target": "Alpha-2B adrenergic receptor (Homo sapiens) (UniProt P18089)", "conditions": "filed as antagonist, Compound concentration 10.0 uM"}}, "data": [{"smiles": "CNc1cc[n+](CCNC(=O)c2ccn3c(-c4c(C)noc4C)cnc3c2)cc1", "values": [{"measurement": "inhibition", "setting": "[1]", "value": 0.5, "unit": "%"}, {"measurement": "inhibition", "setting": "[2]", "value": -2.2, "unit": "%"}, {"measurement": "inhibition", "setting": "[3]", "value": 1.1, "unit": "%"}, {"measurement": "inhibition", "setting": "[4]", "value": 3.6, "unit": "%"}, {"measurement": "inhibition", "setting": "[5]", "value": 11.8, "unit": "%"}, {"measurement": "inhibition", "setting": "[6]", "value": 14.8, "unit": "%"}, {"measurement": "inhibition", "setting": "[7]", "value": 0, "unit": "%"}, {"measurement": "inhibition", "setting": "[8]", "value": -2.2, "unit": "%"}, {"measurement": "IC50", "setting": "[9]", "value": "> 10000 nM (not active)"}, {"measurement": "inhibition", "setting": "[10]", "value": 0.4, "unit": "%"}, {"measurement": "inhibition", "setting": "[11]", "value": 2.7, "unit": "%"}, {"measurement": "inhibition", "setting": "[12]", "value": -2.1, "unit": "%"}, {"measurement": "inhibition", "setting": "[13]", "value": 2.3, "unit": "%"}, {"measurement": "inhibition", "setting": "[14]", "value": -0.9, "unit": "%"}, {"measurement": "inhibition", "setting": "[15]", "value": -8.7, "unit": "%"}, {"measurement": "inhibition", "setting": "[16]", "value": -2.7, "unit": "%"}, {"measurement": "inhibition", "setting": "[17]", "value": 1, "unit": "%"}, {"measurement": "inhibition", "setting": "[18]", "value": -7.5, "unit": "%"}, {"measurement": "inhibition", "setting": "[19]", "value": 25.3, "unit": "%"}, {"measurement": "inhibition", "setting": "[20]", "value": -6.3, "unit": "%"}, {"measurement": "inhibition", "setting": "[21]", "value": 0.4, "unit": "%"}, {"measurement": "inhibition", "setting": "[22]", "value": -5.3, "unit": "%"}]}, {"smiles": "Cc1noc(C)c1-c1cnc2cc(C(=O)NCCC[n+]3ccc(N(C)C)cc3)ccn12", "values": [{"measurement": "inhibition", "setting": "[23]", "value": 0.03, "unit": "%"}, {"measurement": "Ki", "setting": "[24]; read-out: Ki", "value": 2760, "unit": "nM"}, {"measurement": "Ki", "setting": "[24]; read-out: pKi (converted)", "value": 2510, "unit": "nM"}, {"measurement": "inhibition", "setting": "[25]", "value": -6.93, "unit": "%"}, {"measurement": "IC50", "setting": "[26]", "value": "7100 nM (not active)"}, {"measurement": "inhibition", "setting": "[27]", "value": 54.6, "unit": "%"}]}]}
